Measurements: patent EP4631938A1, “NITROGEN-CONTAINING HETEROCYCLE WITH SEROTONIN RECEPTOR-BINDING ACTIVITY AND CARBOCYCLIC DERIVATIVE” (Shionogi & Co., Ltd, priority 2022, dated 2024)

How the values were obtained:
[1] = target: T1, human recombinant 5-HT2C receptor (Homo sapiens, UniProt P28335); test: Test Example 2: 5-HT2C receptor binding inhibition test ([3H]-Mesulergine; non-specific ligand Serotonin HCl); details: human serotonin 5-HT2C receptor binding activity
T1 construct: expressed in transfected cells; host or cells: Jump-In HEK cells (membrane preparation)
T1 sequence (P28335 33-458): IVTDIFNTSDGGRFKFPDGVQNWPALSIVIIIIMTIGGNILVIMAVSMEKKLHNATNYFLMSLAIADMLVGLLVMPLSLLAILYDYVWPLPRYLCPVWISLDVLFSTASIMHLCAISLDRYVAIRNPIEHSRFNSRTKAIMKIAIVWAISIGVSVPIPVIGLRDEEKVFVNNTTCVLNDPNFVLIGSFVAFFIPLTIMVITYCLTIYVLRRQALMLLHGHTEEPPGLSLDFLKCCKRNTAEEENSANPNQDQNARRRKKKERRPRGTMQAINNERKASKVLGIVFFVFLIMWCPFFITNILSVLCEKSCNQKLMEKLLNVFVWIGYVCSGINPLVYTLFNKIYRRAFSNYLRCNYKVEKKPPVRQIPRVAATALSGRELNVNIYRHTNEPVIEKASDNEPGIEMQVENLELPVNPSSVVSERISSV
Experimental: The Kd value is calculated when the lot of the cell membrane is changed. 1 mmol/L non-specific binding calculating compound dissolved in DMSO or DMSO is previously dispensed to the microplate by 0.5 µL, and the cell membrane is diluted with an Assay buffer. The radioactive ligand solution is diluted step by step, and counts are checked with a liquid scintillator. The Assay buffer containing diluted cell membranes is dispensed by 50 µL/well into the microplate. The radioactive ligand solution is then dispensed by 50 µL/well into the microplate and the plate is sealed. The microplate is allowed to stand at 37°C for 2 hours. During this time, 50 mmol/L Tris-HCl (pH 7.4) is dispensed by 50 µL/well into the GF/B UniFilter plate and allowed to stand at 4°C for 1 hour or longer. Thereafter, filtration is performed with a Cell Harvester (PerkinElmer). The radioactive ligand solution is dispensed by 10 µL/well into empty wells of the GF/B UniFilter plate. After drying the GF/B UniFilter plate at room temperature, MicroScinti20 is dispensed by 50 µL/well into the GF/B UniFilter plate, and the plate is sealed. GF/B UniFilter plate is allowed to stand at room temperature overnight. The radioactivity of [^3H]-Mesulergine bound to the 5-HT2C receptor is measured using Microbeta2 (PerkinElmer) at a measurement time of 1 min/well. The Saturation curve is drawn from the measured value, and the Kd value is calculated from the slope of the Scatchard Plot.
A compound solution dissolved in DMSO is dispensed to a microplate by 0.5 µL, and a cell membrane and a hot ligand are each diluted with an Assay buffer. The Assay buffer containing diluted cell membrane is then dispensed by 50 µL/well into the microplate. The radioactive ligand solution is then dispensed by 50 µL/well into the microplate and the plate is sealed. The microplate is then allowed to stand at 37°C for 2 hours. During this time, 50 mmol/L Tris-HCl (pH 7.4) is dispensed by 50 µL/well into the GF/B UniFilter plate and allowed to stand at 4°C for 1 hour or longer. Thereafter, filtration is performed with a Cell Harvester (PerkinElmer). After drying the GF/B UniFilter plate at room temperature, MicroScinti20 is dispensed by 50 µL/well into the GF/B UniFilter plate, and the plate is sealed. GF/B UniFilter plate is allowed to stand at room temperature overnight. The radioactivity of [^3H]-Mesulergine bound to the 5-HT2C receptor is measured using Microbeta2 (PerkinElmer) at a measurement time of 1 min/well. Non-specific binding is calculated from the radioactivity of [^3H]-Mesulergine in the presence of 500 µmol/L Serotonin HCl of unlabeled ligand, and total binding is calculated from the radioactivity of [^3H]-Mesulergine in the absence of the compound of the present invention (Vehicle). Finally, the Ki value is calculated from the dose-response curve.
(§1) (The binding activity of the compound according to the present invention is calculated from the following binding inhibition rate (%).) Inhibition rate (%) = [1−(c−a)/(b−a)] × 100 [formula] • a; average cpm of non-specific binding • b; average cpm of total binding • c; cpm in the presence of the test compound
(§2) The compounds of the present invention were tested essentially as described above.

[2] = target: T2, human recombinant 5-HT2A receptor (Homo sapiens, UniProt P28223); test: Test Example 1-2: 5-HT2A receptor binding inhibition test ([3H]-Ketanserin; non-specific ligand Ketanserin); details: [3H]-Ketanserin; non-specific binding with 500 µmol/L Ketanserin; room temperature (25°C), 1.5 hours; read-out: h 5-HT2A Ki
T2 construct: expressed in transfected cells; host or cells: Jump-In HEK cells (membrane preparation)
Experimental: The Kd value is calculated when the lot of the cell membrane is changed. 1 mmol/L non-specific binding calculating compound dissolved in DMSO or DMSO is previously dispensed to the microplate by 0.5 µL, and the cell membrane is diluted with an Assay buffer. The radioactive ligand solution is diluted step by step, and counts are checked with a liquid scintillator. The Assay buffer containing diluted cell membranes is dispensed by 50 µL/well into the microplate. The radioactive ligand solution is then dispensed by 50 µL/well into the microplate and the plate is sealed. The microplate is allowed to stand for 1.5 hours at room temperature (25°C). During this time, 50 mmol/L Tris-HCl (pH 7.4) is dispensed by 50 µL/well into the UniFilter plate and allowed to stand at 4°C for 1 hour or longer. Thereafter, filtration is performed with a Cell Harvester (PerkinElmer). The radioactive ligand solution is dispensed by 10 µL/well into empty wells of the UniFilter plate. After drying the UniFilter plate at room temperature, MicroScinti20 is dispensed by 50 µL/well into the UniFilter plate, and the plate is sealed. UniFilter plate is allowed to stand at room temperature overnight. The radioactivity of [^3H]-Ketanserin bound to the 5-HT2A receptor is measured using Microbeta2 (PerkinElmer) at a measurement time of 1 min/well. The Saturation curve is drawn from the measured value, and the Kd value is calculated from the slope of the Scatchard Plot.
A compound solution dissolved in DMSO is dispensed to a microplate by 0.5 µL, and a cell membrane and a hot ligand are each diluted with an Assay buffer. The Assay buffer containing diluted cell membrane is then dispensed by 50 µL/well into the microplate. The radioactive ligand solution is then dispensed by 50 µL/well into the microplate and the plate is sealed. Thereafter, the microplate is allowed to stand at room temperature (25°C) for 1.5 hours. During this time, 50 mmol/L Tris-HCl (pH 7.4) is dispensed by 50 µL/well into the UniFilter plate and allowed to stand at 4°C for 1 hour or longer. Thereafter, filtration is performed with a Cell Harvester (PerkinElmer). After drying the UniFilter plate at room temperature, MicroScinti20 is dispensed by 50 µL/well into the UniFilter plate, and the plate is sealed. UniFilter plate is allowed to stand at room temperature overnight. The radioactivity of [^3H]-Ketanserin bound to the 5-HT2A receptor is measured using Microbeta2 (PerkinElmer) at a measurement time of 1 min/well. Non-specific binding is calculated from the radioactivity of [^3H]-Ketanserin in the presence of 500 µmol/L Ketanserin of unlabeled ligand, and total binding is calculated from the radioactivity of [^3H]-Ketanserin in the absence of the compound of the present invention (Vehicle). Finally, the Ki value is calculated from the dose-response curve.
as §1, §2

T2 sequence (P28223 whole entry): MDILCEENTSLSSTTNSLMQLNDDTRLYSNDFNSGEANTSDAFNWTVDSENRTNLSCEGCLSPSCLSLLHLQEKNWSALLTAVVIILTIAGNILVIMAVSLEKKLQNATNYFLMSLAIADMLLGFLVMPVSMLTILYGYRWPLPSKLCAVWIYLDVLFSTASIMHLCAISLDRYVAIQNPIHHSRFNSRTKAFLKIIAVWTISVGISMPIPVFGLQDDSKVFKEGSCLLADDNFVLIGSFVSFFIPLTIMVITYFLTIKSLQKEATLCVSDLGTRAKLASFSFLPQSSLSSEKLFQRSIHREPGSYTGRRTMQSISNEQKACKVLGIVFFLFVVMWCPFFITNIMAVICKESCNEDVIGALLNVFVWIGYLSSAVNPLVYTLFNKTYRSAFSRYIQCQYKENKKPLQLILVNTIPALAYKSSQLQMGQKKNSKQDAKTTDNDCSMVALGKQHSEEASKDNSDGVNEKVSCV

`COCc1nc(C)c(-c2cc(Nc3ccc(C(F)(F)F)c(C)n3)ncc2OCCO)c(C)n1` [Compound I-248] gave a Ki [1] of 4.78 nM and a Ki [2] of 0.794 nM.
`Cn1ncc(Br)c1-c1nc(Nc2ccc(Cl)cc2)ncc1OCCO` [Compound I-339] gave a Ki [1] of 2.52 nM and a Ki [2] of 0.217 nM.
`Cc1cc(Cl)cnc1Nc1ccc(OCCO)c(-c2c(Br)cnn2C)c1` [Compound I-341] showed a Ki [1] of 0.14 nM and a Ki [2] of 0.303 nM.
With `Cc1nc(C)c(-c2cc(Nc3cc(OC(F)F)c(Cl)cn3)ncc2OCCO)c(C)n1` [Compound I-302] the Ki [1] was 6.21 nM and the Ki [2] was 1.08 nM.
In the case of `Cc1nc(N2CCCC2)nc(C)c1-c1cc(Nc2ncc(C(F)(F)F)cc2Cl)ncc1OCCO` [Compound I-209], the Ki [1] is reported as 5.63 nM and the Ki [2] is reported as 1.71 nM.
For `Cc1nc(C)c(-c2cc(Nc3ncc(-c4ccc(F)cc4)cc3F)ncc2OCCO)c(C)n1` [Compound I-316], the Ki [1] was 0.864 nM and the Ki [2] was 0.506 nM.
Work on `Cc1cc(Nc2ncc(OCCO)c(-c3c(Br)cnn3C)n2)ccc1Cl` [Compound I-348] yielded a Ki [1] of 6.11 nM and a Ki [2] of 0.215 nM.
Work on `Cc1nc(C2CCCO2)nc(C)c1-c1cc(Nc2ncc(C(F)(F)F)cc2F)ncc1OCCO` (racemic) [Compound I-198] yielded a Ki [1] of 9.63 nM and a Ki [2] of 5.3 nM.
`Cn1ncc(Br)c1-c1cc(Nc2ccc(C(F)F)nn2)c(F)cc1OCCO` [Compound I-403] was tested, and the Ki [1] was 29.9 nM and the Ki [2] was 0.565 nM.
In the case of `COCc1nc(C)c(-c2cc(Nc3ncc(-c4ccc(OC(F)F)cc4)cc3Cl)ncc2OCCO)c(C)n1` [Compound I-261], the Ki [1] is reported as 0.482 nM and the Ki [2] is reported as 0.608 nM.
`COC(=O)c1ccc(-c2cc(Nc3ncc(C(F)(F)F)cc3F)ncc2OCCO)c(C)c1` [Compound I-370] showed a Ki [1] of 86.8 nM and a Ki [2] of 1.03 nM.
`COCc1nc(C)c(-c2cc(Nc3ccc(-c4ccc(F)cc4)cn3)ncc2OCCO)c(C)n1` [Compound I-272] showed a Ki [1] of 1.4 nM and a Ki [2] of 0.343 nM.
In the case of `Cc1nc(C)c(-c2cc(Nc3ncc(OC(F)(F)F)cc3Cl)ncc2OCCO)c(C)n1` [Compound I-270], the Ki [1] is reported as 2.74 nM and the Ki [2] is reported as 0.938 nM.
Work on `Cc1nc(OC2COC2)nc(C)c1-c1cc(Nc2ncc(C(F)(F)F)cc2Cl)ncc1OCCO` [Compound I-220] yielded a Ki [1] of 5.91 nM and a Ki [2] of 1.39 nM.
For `Cn1ncc(Br)c1-c1nc(Nc2ccc(C(F)(F)F)nc2)c(F)cc1OCCO` [Compound I-290], the Ki [1] was 17.6 nM and the Ki [2] was 0.438 nM.
`Cc1nc(N2CCCC2=O)nc(C)c1-c1cc(Nc2ncc(C(F)(F)F)cc2Cl)ncc1OCCO` [Compound I-215] showed a Ki [1] of 9.55 nM and a Ki [2] of 4.48 nM.
With `COc1nc(C)nc(OC)c1-c1cc(Nc2ncc(C(F)(F)F)cc2Cl)ncc1OCCO` [Compound I-380] the Ki [1] was 7.28 nM and the Ki [2] was 0.527 nM.
`Cc1nc(C)c(-c2cc(Nc3ncc(C(F)(F)F)cc3C)c(F)cc2OCCO)c(C)n1` [Compound I-175] gave a Ki [1] of 3.19 nM and a Ki [2] of 1.92 nM.
`COCc1nc(C)c(-c2cc(Nc3ncc(-c4cccc(C(F)F)c4)cc3Cl)ncc2OCCO)c(C)n1` [Compound I-262] was tested, and the Ki [1] was 0.541 nM and the Ki [2] was 0.558 nM.
For `Cc1cnn(Cc2nc(C)c(-c3cc(Nc4ncc(C(F)(F)F)cc4Cl)ncc3OCCO)c(C)n2)c1` [Compound I-379], the Ki [1] was 0.791 nM and the Ki [2] was 1.13 nM.
Compound `COCc1nc(C)c(-c2cc(Nc3ncc(-c4ccc(Cl)cn4)cc3Cl)ncc2OCCO)c(C)n1` [Compound I-235] has a Ki [1] of 0.984 nM and a Ki [2] of 0.925 nM.
Compound `Cn1ncc(Cl)c1-c1cc(Nc2ccc(OCC(F)(F)F)cn2)ncc1OCCO` [Compound I-313] has a Ki [1] of 1.38 nM and a Ki [2] of 0.198 nM.
With `COCc1nc(C)c(-c2cc(Nc3ncc(C(F)(F)F)cc3F)ncc2OCCO)c(C)n1` [Compound I-199] the Ki [1] was 5.98 nM and the Ki [2] was 6.09 nM.
With `Cc1nc(C)c(-c2cc(Nc3ccc(-c4ccc(C(F)(F)F)cn4)cn3)ncc2OCCO)c(C)n1` [Compound I-314] the Ki [1] was 3.68 nM and the Ki [2] was 0.902 nM.
`COCc1nc(C)c(-c2cc(Nc3ncc(-c4cccc(F)c4F)cc3Cl)ncc2OCCO)c(C)n1` [Compound I-259] was tested, and the Ki [1] was 0.623 nM and the Ki [2] was 0.672 nM.
`COCc1nc(C)c(-c2cc(Nc3ncc(-c4ccc(C(F)F)cc4)cc3Cl)ncc2OCCO)c(C)n1` [Compound I-242] was tested, and the Ki [1] was 0.337 nM and the Ki [2] was 0.258 nM.
